Measured values: patent US20210087217A1, “NUCLEOTIDE HEMI-SULFATE SALT FOR THE TREATMENT OF HEPATITIS C VIRUS” (Atea Pharmaceuticals, Inc., priority 2017, published 2021)
“Also recorded” adds a separate entry of the source. Structures can show the parent of a compound that is named as a salt. Blank lines part the entries; values can stand above or below the molecule they belong to.

Legend:
[1] = biological target: human mitochondrial RNA-dependent RNA polymerase (POLRMT) (Homo sapiens, UniProt O00411); experiment: Incorporation of nucleotide analog triphosphates by human mitochondrial RNA polymerase; format: biochemical
human mitochondrial RNA-dependent RNA polymerase (POLRMT), sequence (O00411 42-1230): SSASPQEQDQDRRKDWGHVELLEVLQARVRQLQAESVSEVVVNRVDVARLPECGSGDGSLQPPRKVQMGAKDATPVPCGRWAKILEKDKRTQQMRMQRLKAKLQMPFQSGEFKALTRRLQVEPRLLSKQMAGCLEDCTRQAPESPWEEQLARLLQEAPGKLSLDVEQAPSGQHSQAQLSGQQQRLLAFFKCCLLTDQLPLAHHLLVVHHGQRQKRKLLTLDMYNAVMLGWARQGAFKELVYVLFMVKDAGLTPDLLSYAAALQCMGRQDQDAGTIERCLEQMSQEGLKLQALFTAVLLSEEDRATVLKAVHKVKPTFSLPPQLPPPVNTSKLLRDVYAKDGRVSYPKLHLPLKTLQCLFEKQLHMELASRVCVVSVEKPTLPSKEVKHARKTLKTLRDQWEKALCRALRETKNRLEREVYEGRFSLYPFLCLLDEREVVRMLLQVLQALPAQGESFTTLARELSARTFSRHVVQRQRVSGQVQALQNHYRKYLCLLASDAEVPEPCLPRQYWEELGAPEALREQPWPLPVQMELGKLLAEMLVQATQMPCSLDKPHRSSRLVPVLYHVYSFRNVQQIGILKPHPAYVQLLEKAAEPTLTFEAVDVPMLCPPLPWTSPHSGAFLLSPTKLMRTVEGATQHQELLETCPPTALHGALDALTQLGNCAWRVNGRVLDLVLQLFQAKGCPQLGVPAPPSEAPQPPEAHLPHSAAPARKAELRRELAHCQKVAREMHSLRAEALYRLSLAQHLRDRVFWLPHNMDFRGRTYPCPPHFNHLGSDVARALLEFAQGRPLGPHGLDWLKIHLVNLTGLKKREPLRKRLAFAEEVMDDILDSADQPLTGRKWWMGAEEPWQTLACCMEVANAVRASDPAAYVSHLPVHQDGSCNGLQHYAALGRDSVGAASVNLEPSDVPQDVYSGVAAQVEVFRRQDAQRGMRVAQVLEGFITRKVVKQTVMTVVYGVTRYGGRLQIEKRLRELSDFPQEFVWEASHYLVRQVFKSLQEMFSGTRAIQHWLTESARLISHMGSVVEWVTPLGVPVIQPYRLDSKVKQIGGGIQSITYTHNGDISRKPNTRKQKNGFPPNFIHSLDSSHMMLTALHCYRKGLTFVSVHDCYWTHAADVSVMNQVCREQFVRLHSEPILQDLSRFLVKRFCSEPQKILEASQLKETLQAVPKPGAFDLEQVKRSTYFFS
Description: The incorporation of these analogs by human mitochondrial RNA-dependent RNA polymerase (POLRMT) were determined according to Arnold et al. (Sensitivity of Mitochondrial Transcription and Resistance of RNA Polymerase II Dependent Nuclear Transcription to Antiviral Ribonucleotides. PLoS Pathog., 2012, 8, e1003030).

[2] = Storage of Compound 1 forms and amorphous salts at 25° C./60% RH for 14 days (HPLC, XRPD, observation)
Description: This initial characterization was followed by storage at 25° C./60% relative humidity (RH) for 14 days with analysis by […] and XRPD after 7 and 14 days. FIG. 4A is the XRPD after 14 days at 25° C./60% (RH).
The samples were then frozen with the solvent removed by lyophilization.
The samples were then subjected to storage at 25° C./60% relative humidity (RH) for 14 days with analysis by HPLC and XRPD after 7 (FIG. 4B) and 14 days (FIG. 5A).

[3] = Plasma profiles of Compound 2 metabolites in rats; conditions: male, Sprague-Dawley, rat, plasma, po, 500 mg/kg
Description: The results for a single 500 mg/kg dose in rats is shown in FIG. 17 and the results for a single 30, 100, or 300 mg/kg dose in monkeys is shown in FIG. 18.

[4] = Plasma profiles of Compound 2 metabolites in monkeys; format: in vivo, cynomolgus monkeys; conditions: cynomolgus monkey, plasma, po
[5] = Single ascending dose study of Compound 2 in healthy volunteers (Part A): safety, tolerability, pharmacokinetic; format: in vivo, human; conditions: both sexes, human, plasma, oral; for concentration at 24 h: read-out: C24h
Description: Compound 2 was tested in a single ascending dose (SAD) study to measure its safety, tolerability, and pharmacokinetic in healthy subjects (Part A). Part A was a randomized, double-blind, placebo-controlled SAD study. Healthy subjects in Part A received a single dose of Compound 2 or placebo in the fasting state. Subjects were confined to the clinic from Day −1 to Day 6.
Dosing in each cohort was staggered such that 2 subjects (1 active:1 placebo) were evaluated for 48 hours after dosing before the remainder of the cohort was dosed. Each cohort received Compound 2 in ascending order. Dosing of sequential cohorts occurred based on review of available safety data (through Day 5) and plasma pharmacokinetic data (through 24 h) of the prior cohort.
As pharmacokinetic and safety data emerged from prior cohorts, doses evaluated in Cohorts 3a-4a were adjusted by increments no more than 100 mg.
Healthy volunteers in the Part A portion of the study were male and female subjects between the ages of 18 and 65. Active and placebo recipients were pooled within each Part A cohort to preserve the study blind.
(§1) Pharmacokinetic of Compound 1 and nucleoside metabolite 1-7 were measured following the single dose of Compound 2. […] Values are reported as mean±SD, except or Tmax where median (range) is reported.

[6] = Single ascending dose study of Compound 2 in GT1-HCV infected patients (Part B): safety, tolerability, pharmacokinetic; format: in vivo, human; conditions: human; for Cmax / AUC / half-life / Tmax: in vivo; for Cmax / AUC / half-life / concentration at 24 h: GT1-HCV infected patients, mean±SD; for concentration at 24 h: plasma, oral, read-out: C24h
Description: Subjects in Part B received a single dose of Compound 2 in the fasting state. Patients were confined to the clinic from Day −1 to Day 6.
Part B was initiated after the safety (through Day 5) and plasma pharmacokinetic (through 24 h) data review from Cohort 3a in Part A. Available safety data (through Day 5) and pharmacokinetic data (through 24 h) was reviewed for the first cohort in Part B (Cohort 1b) before enrolling subsequent Part B cohorts. Subsequent Part B cohorts were only dosed following review of available safety and pharmacokinetic data from the respective doses in Part A as well as available safety (through Day 5) from the prior Part B cohorts.
Patients infected with HCV were treatment-naïve, non-cirrhotic GT1-infected subjects with a viral load of ≥5 log10 IU/mL.
as §1
Plasma exposure of Compound 1 was dose-related while exposure of metabolite 1-7 was dose-proportional.

[7] = incorporation by human mitochondrial RNA polymerase
[8] = 100 mg, Compound 2 100 mg, based on 24-hr profile
[9] = 300 mg, Compound 2 300 mg (first 300 mg line)
[10] = 300 mg, Compound 2 300 mg (first 300 mg line), based on 24-hr profile
[11] = 300 mg, Compound 2 300 mg (second 300 mg line)

Kpol [1, 7]: 0.051 s⁻¹
Structure (SMILES): C[C@@]1(O)[C@H](O)[C@@H](COP(=O)(O)OP(=O)(O)OP(=O)(O)O)O[C@H]1n1cnc2c(=O)[nH]c(N)nc21 [2'-C-methyl GTP]

Kpol [1, 7]: 0.00034 s⁻¹
Structure (SMILES): CC1(F)C(O)C(COP(=O)(O)OP(=O)(O)OP(=O)(O)O)OC1n1ccc(=O)[nH]c1=O (centres unmarked) [2’-deoxy-2’-F-2’-C-methyl UTP]

Structure (SMILES): CNc1nc(N)nc2c1ncn2[C@@H]1O[C@H](CO[P@@](=O)(N[C@@H](C)C(=O)OC(C)C)Oc2ccccc2)[C@@H](O)[C@@]1(C)F [Compound 3, mono-sulfate salt of isopropyl((S)-(((2R,3R,4R,5R)-5-(2-amino-6-(methylamino)-9H-purin-9-yl)-4-fluoro-3-hydroxy-4-methyltetrahydrofuran-2-yl)methoxy)(phenoxy)phosphoryl)-L-alaninate]
Physical/chemical stability and appearance on storage ([2]; 25° C./60% RH, 14 days): unstable; also recorded: not physically stable

Structure (SMILES): CNc1nc(N)nc2c1ncn2[C@@H]1O[C@H](CO[P@@](=O)(N[C@@H](C)C(=O)OC(C)C)Oc2ccccc2)[C@@H](O)[C@@]1(C)F [Compound 5]
Hygroscopicity ([2]; listed as HCl salt): more hydroscopic than the hemisulfate salt

Incorporation of active triphosphate by human mitochondrial RNA polymerase [1]: poorlyincorporated
Relative Efficiency ([1]; (Kpol/Kd,app)analog nucleotide/(Kpol/Kd,app)natural nucleotide): 2.2 × 10^−6
Kpol [1, 7]: 0.0017 s⁻¹
Kpol/Kd,app [1, 7]: 8.3 M⁻¹ s⁻¹
Kd ([1]; incorporation by human mitochondrial RNA polymerase, read-out: Kd,app): 204 µM
Structure (SMILES): C[C@@]1(F)[C@H](O)[C@@H](COP(=O)(O)OP(=O)(O)OP(=O)(O)O)O[C@H]1n1cnc2c(=O)[nH]c(N)nc21 [Metabolite 1-6]

Structure (SMILES): C[C@@]1(F)[C@H](O)[C@@H](CO)O[C@H]1n1cnc2c(=O)[nH]c(N)nc21 [Metabolite 1-7, 2-amino-9-((2R,3R,4R,5R)-3-fluoro-4-hydroxy-5-(hydroxymethyl)-3-methyltetrahydrofuran-2-yl)-1,9-dihydro-6H-purin-6-one]
AUC(0-t) [3]: 9640 ng·h/mL
Cmax [3]: 541 ng/mL
Tmax [3]: 6 to 8 h
half-life [3]: 15.3 h
AUC(0-t) ([4]; 30 mg/kg): 1620 ng·h/mL
Cmax ([4]; 30 mg/kg): 42.5 ng/mL
Tmax ([4]; 30 mg/kg): 12 to 24 h
half-life ([4]; 30 mg/kg): 11.5 h
AUC(0-t) ([4]; 100 mg/kg): 3030 ng·h/mL
Cmax ([4]; 100 mg/kg): 131 ng/mL
half-life ([4]; 100 mg/kg): 15 h
AUC(0-t) ([4]; 300 mg/kg): 3660 ng·h/mL
Cmax ([4]; 300 mg/kg): 93.6 ng/mL
Tmax ([4]; 300 mg/kg): 4 to 24 h
half-life ([4]; 300 mg/kg): 18.8 h
AUC ([5]; 50 mg): 285 ± 69.4 ng·h/mL
Cmax ([5]; 50 mg): 27.9 ± 5.62 ng/mL
Tmax ([5]; 50 mg): 3.5 h
half-life ([5]; 50 mg): 7.07 ± 4.59 h
concentration at 24 h ([5]; 50 mg): 2.28 ± 0.95 ng/mL
AUC ([5]; 100 mg): 663 ± 242 ng·h/mL
Cmax ([5]; 100 mg): 56.6 ± 14 ng/mL
half-life ([5]; 100 mg): 17.7 ± 14.7 h
concentration at 24 h ([5]; 100 mg): 4.45 ± 1.87 ng/mL
AUC ([5]; 200 mg): 1520 ± 497 ng·h/mL
Cmax ([5]; 200 mg): 111 ± 38.8 ng/mL
half-life ([5]; 200 mg): 15.9 ± 7.95 h
concentration at 24 h ([5]; 200 mg): 13.7 ± 5.09 ng/mL
AUC ([5]; 400 mg): 2340 ± 598 ng·h/mL
Cmax ([5]; 400 mg): 153 ± 49.4 ng/mL
half-life ([5]; 400 mg): 15.6 ± 6.37 h
concentration at 24 h ([5]; 400 mg): 23.5 ± 6.31 ng/mL
Cmax ([6]; 100 mg, Compound 2 100 mg): 50.2 ± 15.4 ng/mL
AUC [6, 8]: 538 ± 103 ng·h/mL
half-life [6, 8]: 8.4 ± 4.3 h
Tmax ([6]; 100 mg, Tmax): 6 h
Tmax ([6]; 300 mg): 4.0 (3.0-6.0) h
Cmax [6, 9]: 96.9 ± 38.9 ng/mL
AUC [6, 10]: 1130 ± 273 ng·h/mL
half-life [6, 10]: 8.1 ± 2.4 h
AUC [6, 11]: 1420 ± 221 ng·h/mL
Cmax [6, 11]: 123 ± 16.6 ng/mL
Tmax ([6]; 300 mg, Tmax): 6 h
AUC ([6]; 400 mg, Compound 2 400 mg): 2130 ± 120 ng·h/mL
Cmax ([6]; 400 mg, Compound 2 400 mg): 160 ± 36.7 ng/mL
half-life ([6]; 400 mg, Compound 2 400 mg): 11.6 ± 1.21 h
AUC ([6]; 600 mg, Compound 2 600 mg): 2180 ± 116 ng·h/mL
Cmax ([6]; 600 mg, Compound 2 600 mg): 198 ± 19.3 ng/mL
concentration at 24 h ([6]; 100 mg, Compound 2 100 mg): 3.6 ± 0.4 ng/mL
concentration at 24 h [6, 9]: 10.9 ± 3.51 ng/mL
concentration at 24 h [6, 11]: 18 ± 8.83 ng/mL
concentration at 24 h ([6]; 400 mg, Compound 2 400 mg): 22.5 ± 3.29 ng/mL
concentration at 24 h ([6]; 600 mg, Compound 2 600 mg): 25.8 ± 4.08 ng/mL
